From patent US20260083851A1 (AVILAR THERAPEUTICS, INC., priority 2022, published 2026)
Where two headings read alike, the source gives them in different places.

Key:
[1] = molecular target: TNF (Homo sapiens, UniProt P01375); experiment: TNF FP Assay; type: binding; details: TNF 20 nM, 25° C., 2 hours
Protocol: TNF (20 nM) and test compound in 47 mM HEPES pH 6.5, 47 mM NaCl, 0.9 mM EDTA, 0.007% Triton X-100 were incubated at 25° C. for 2 hours. Fluorescence data was read with an Envision and plotted versus Compound concentration and fit to a single-site binding model.

[2] = molecular target: T1, ASGPR (Homo sapiens, UniProt P07306); experiment: ASGPR SPR binding
T1 construct: biotin (biotinylated)
T1 sequence (P07306 1-291): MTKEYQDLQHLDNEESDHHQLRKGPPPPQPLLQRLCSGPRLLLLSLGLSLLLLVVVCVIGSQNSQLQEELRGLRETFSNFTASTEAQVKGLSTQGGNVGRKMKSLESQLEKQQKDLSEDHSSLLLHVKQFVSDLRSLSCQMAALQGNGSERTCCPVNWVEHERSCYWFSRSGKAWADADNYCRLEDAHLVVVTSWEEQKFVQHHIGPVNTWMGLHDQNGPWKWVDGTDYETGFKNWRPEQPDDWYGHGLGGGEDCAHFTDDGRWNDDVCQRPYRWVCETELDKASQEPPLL

[3] = molecular target: IgG; experiment: IgG SPR binding
[4] = molecular target: T2, ASGPR receptor on HepG2 cells (ternary complex with AF488-labeled antibody) (Homo sapiens, UniProt P07306); experiment: Ternary complex formation assay (flow cytometry, cell-associated AF488 fluorescence); type: cell-based; details: 100 nM AF488-labeled antibody, 1 hour at 4° C.
T2 construct: host or cells: HepG2
T2 sequence (P07306 1-291): T1 sequence (P07306 1-291)
T2 sequence (P07307 1-311 partner): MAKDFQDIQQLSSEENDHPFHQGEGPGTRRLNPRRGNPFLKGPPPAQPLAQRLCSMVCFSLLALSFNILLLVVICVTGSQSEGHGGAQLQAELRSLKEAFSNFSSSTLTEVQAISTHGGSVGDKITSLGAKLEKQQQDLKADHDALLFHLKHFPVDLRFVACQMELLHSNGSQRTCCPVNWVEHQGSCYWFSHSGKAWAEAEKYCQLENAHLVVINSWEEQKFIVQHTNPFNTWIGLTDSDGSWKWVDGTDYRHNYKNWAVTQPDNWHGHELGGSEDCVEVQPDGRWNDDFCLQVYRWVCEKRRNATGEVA

[5] = test system: HepG2 cells; experiment: Cellular uptake assay (high-content imaging); type: cell-based, human; details: 100 nM AF488-labeled antibody, 6 hours at 37° C.
From the text: The cellular uptake assay is designed to measure compound-mediated cellular uptake of fluorescently labeled antibody following ternary complex formation with the ASGPR receptor and endocytosis of the entire complex into cells. The optimal concentration of compound will result in the maximum number of cells with intracellular antibody and is represented as the peak ratio of antibody-positive cells over the total number of cells. As with the ternary complex formation assay, too much or too little compound will result in suboptimal complex formation and fewer cells will have measurable intracellular fluorescence.
Human IgG (Sigma-Aldrich, 14506) was covalently labeled with Alexa Fluor 488 using the Alexa Fluor™ 488 Protein Labeling Kit (Thermo Fisher, A10235) following the manufacturer's instructions. HepG2 cells were plated in DMEM supplemented with 10% FBS at 5,000 cells per well in a 96-well microtiter plate and incubated for approximately 18 hours at 37° C./5% CO2. For studies using human IgG, 100 nM AF488-labeled human IgG antibodies and serial dilutions of IgG-based degrader (0.1% DMSO final concentration) were added to the cells and the mixture was incubated at 37° C. for 6 hours. For studies using DNP, 100 nM AF488-labeled DNP antibodies and serial dilutions of DNP-based degrader (0.1% DMSO final concentration) were added to the cells and the mixture was incubated at 37° C. for 6 hours. HepG2 cells were fixed in 100% methanol at −20° C. for 20 min, washed 3× with PBS, then stained with DAPI (Thermo, Cat #H3570). HepG2 cells were imaged for DAPI and Alexa Fluor 488 using the Operetta CLS, high-content analysis system (PerkinElmer). Data is presented as the ratio of the number of cells positive for hIgG or DNP (AF-488 fluorescence) over the total cell number (measured by DAPI).

[6] = Table 3, read-out: ASGPR SPR Binding KD
[7] = Table 3, read-out: IgG SPR Binding KD
[8] = Table 3, class symbols, read-out: Ternary Complex EC50
[9] = Homo sapiens, Table 3, class symbols, read-out: Uptake Assay (EC50)
[10] = Table 3, numeric bounds, read-out: Ternary Complex EC50
[11] = second table, read-out: ASGPR KD
[12] = the 25th table, class symbols, read-out: TCF EC50
[13] = the 25th table, class symbols, read-out: Uptake EC50

Chain of TNF (P01375 77-233 limits assumed): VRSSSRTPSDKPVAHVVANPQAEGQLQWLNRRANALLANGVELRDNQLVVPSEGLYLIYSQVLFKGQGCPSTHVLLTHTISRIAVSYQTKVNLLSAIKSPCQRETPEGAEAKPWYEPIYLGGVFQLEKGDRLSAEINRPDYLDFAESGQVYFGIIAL

Row | Kd [2, 6] | Kd [3, 7] | EC50 [5, 9] | SMILES | Kd [2, 11] | Kd ([3]; second table, read-out: IgG KD) | EC50 [4, 12] | EC50 [5, 13] | other results
1 |  |  |  | O=C(CCOCC(COCCC(=O)NCCOCCOCCOCCOC[C@H]1OC[C@H](Nc2cncc(C(F)(F)F)n2)[C@@H](O)[C@H]1O)NC(=O)COCCOCCOCCOCCOCC(=O)N1CCN(Cc2ccc(-c3c[nH]c4ccncc34)c(OCCc3ccc(-c4cccc5ccncc45)cc3)c2)CC1)NCCOCCOCCOCCOC[C@H]1OC[C@H](Nc2cncc(C(F)(F)F)n2)[C@@H](O)[C@H]1O [compound 5] |  |  |  |  | IC50 ([1]; Table 2, numeric bound): > 0.136 µM
2 |  |  |  | O=C(CNC[C@H]1OC[C@H](Nc2cncc(C(F)(F)F)n2)[C@@H](O)[C@H]1O)NCCOCCOCCOCc1ccc(-c2cccc3ccncc23)c(OCCc2ccc(-c3cccc4ccncc34)cc2)c1 [compound 6] |  |  |  |  | IC50 ([1]; Table 2): 0.1 to 0.5 µM
3 | < 0.1 µM | < 0.1 µM | < 0.1 µM | CC(C)C[C@@H]1NC(=O)[C@H](Cc2cnc[nH]2)NC(=O)[C@H](Cc2c[nH]c3ccccc23)NC(=O)[C@H](C)NC(=O)[C@@H]2CSSC[C@H](NC(=O)[C@H](Cc3c[nH]c4ccccc34)NC(=O)[C@H](C(C)C)NC(=O)[C@H](CC(C)C)NC(=O)[C@H](CCC(=O)O)NC(=O)CNC1=O)C(=O)N[C@@H]([C@@H](C)O)C(=O)N1CCC[C@@H]1C(=O)N1C[C@H](NC(=O)c3ccc(N4CCC(CN5CCN(C[C@H]6OC[C@H](Nc7ccnc(C(F)(F)F)n7)[C@@H](O)[C@H]6O)CC5)CC4)cc3)C[C@H]1C(=O)N[C@@H](CC(=O)O)C(=O)N2 [compound 32] |  |  |  |  | EC50 [4, 8]: < 0.1 µM
4 | 0.1 to 0.5 µM | < 0.1 µM | < 0.1 µM | CC(C)C[C@@H]1NC(=O)[C@H](Cc2cnc[nH]2)NC(=O)[C@H](Cc2c[nH]c3ccccc23)NC(=O)[C@H](C)NC(=O)[C@@H]2CSSC[C@H](NC(=O)[C@H](Cc3c[nH]c4ccccc34)NC(=O)[C@H](C(C)C)NC(=O)[C@H](CC(C)C)NC(=O)[C@H](CCC(=O)O)NC(=O)CNC1=O)C(=O)N[C@@H]([C@@H](C)O)C(=O)N1CCC[C@@H]1C(=O)N1C[C@@H](NC(=O)COCCOCC(=O)NC[C@H]3OC[C@H](Nc4nc(C(F)(F)F)ccc4F)[C@@H](O)[C@H]3O)C[C@H]1C(=O)N[C@@H](CC(=O)O)C(=O)N2 [compound 33] |  |  |  |  | EC50 [4, 8]: < 0.1 µM
5 | > 1 µM | < 0.1 µM | > 1 µM | CC(C)C[C@@H]1NC(=O)[C@H](Cc2cnc[nH]2)NC(=O)[C@H](Cc2c[nH]c3ccccc23)NC(=O)[C@H](C)NC(=O)[C@@H]2CSSC[C@H](NC(=O)[C@H](Cc3c[nH]c4ccccc34)NC(=O)[C@H](C(C)C)NC(=O)[C@H](CC(C)C)NC(=O)[C@H](CCC(=O)O)NC(=O)CNC1=O)C(=O)N[C@@H]([C@@H](C)O)C(=O)N1CCC[C@@H]1C(=O)N1C[C@@H](NC(=O)COCCOCC(=O)NC[C@H]3OC[C@H](Nc4nccc(C(F)(F)F)n4)[C@@H](O)[C@H]3O)C[C@H]1C(=O)N[C@@H](CC(=O)O)C(=O)N2 [compound 34] |  |  |  |  | EC50 [4, 10]: > 0.964 µM
6 | > 1 µM | < 0.1 µM |  | CC(C)C[C@@H]1NC(=O)[C@H](Cc2cnc[nH]2)NC(=O)[C@H](Cc2c[nH]c3ccccc23)NC(=O)[C@H](C)NC(=O)[C@@H]2CSSC[C@H](NC(=O)[C@H](Cc3c[nH]c4ccccc34)NC(=O)[C@H](C(C)C)NC(=O)[C@H](CC(C)C)NC(=O)[C@H](CCC(=O)O)NC(=O)CNC1=O)C(=O)N[C@@H]([C@@H](C)O)C(=O)N1CCC[C@@H]1C(=O)N1C[C@H](NC(=O)COCCOCC(=O)NC[C@H]3OC[C@H](Nc4nccc(C(F)(F)F)n4)[C@@H](O)[C@H]3O)C[C@H]1C(=O)N[C@@H](CC(=O)O)C(=O)N2 [compound 35] |  |  |  |  | EC50 [4, 10]: > 10 µM; EC50 ([5]; Homo sapiens, Table 3, numeric bounds, read-out: Uptake Assay (EC50)): > 10 µM
7 |  |  |  | CC(=O)N[C@H]1[C@H](OCCCCOCCOCCOCCNC(=O)CCOCC(COCCC(=O)NCCOCCOCCOCCO[C@@H]2O[C@H](CO)[C@H](O)[C@H](O)[C@H]2NC(C)=O)NC(=O)CCCCCn2cc(CCCC(=O)NCCOCCOCCOCCOCCC(=O)N[C@H]3C[C@H]4C(=O)N[C@@H](CC(=O)O)C(=O)N[C@H]5CSSC[C@H](NC(=O)[C@H](Cc6c[nH]c7ccccc67)NC(=O)[C@H](C(C)C)NC(=O)[C@H](CC(C)C)NC(=O)[C@H](CCC(=O)O)NC(=O)CNC(=O)[C@H](CC(C)C)NC(=O)[C@H](Cc6cnc[nH]6)NC(=O)[C@H](Cc6c[nH]c7ccccc67)NC(=O)[C@H](C)NC5=O)C(=O)N[C@@H]([C@@H](C)O)C(=O)N5CCC[C@@H]5C(=O)N4C3)nn2)O[C@H](CO)[C@H](O)[C@@H]1O (stereo partly shown) [compound 86] | > 1 µM | < 0.1 µM | > 1 µM | > 1 µM | 
8 |  |  |  | CC(C)C[C@@H]1NC(=O)[C@H](Cc2cnc[nH]2)NC(=O)[C@H](Cc2c[nH]c3ccccc23)NC(=O)[C@H](C)NC(=O)[C@@H](NC(=O)[C@H](CC(=O)O)NC(=O)CCOCCOCCOCCOCCNC(=O)CCCc2cn(CCCCCC(=O)NC(CCCCC(=O)NCCOCCOCCOCCOC[C@H]3OC[C@H](Nc4nccc(C(F)(F)F)n4)[C@@H](O)[C@H]3O)COCCC(=O)NCCOCCOCCOCCOC[C@H]3OC[C@H](Nc4nccc(C(F)(F)F)n4)[C@@H](O)[C@H]3O)nn2)CSSC[C@@H](C(=O)N[C@H](C(N)=O)[C@@H](C)O)NC(=O)[C@H](Cc2c[nH]c3ccccc23)NC(=O)[C@H](C(C)C)NC(=O)[C@H](CC(C)C)NC(=O)[C@H](CCC(=O)O)NC(=O)CNC1=O (stereo partly shown) [compound 90] | < 0.1 µM | < 0.1 µM | < 0.1 µM | < 0.1 µM | 
9 |  |  |  | CC(C)C[C@@H]1NC(=O)[C@H](Cc2cnc[nH]2)NC(=O)[C@H](Cc2c[nH]c3ccccc23)NC(=O)[C@H](C)NC(=O)[C@@H](NC(=O)[C@H](CC(=O)O)NC(=O)CCOCCOCCOCCOCCNC(=O)CCCc2cn(CCCCCC(=O)NC(COCCC(=O)NCCOCCOCCOCCO[C@@H]3O[C@H](CO)[C@H](O)[C@H](O)[C@H]3Nc3cncc(C(F)(F)F)n3)COCCC(=O)NCCOCCOCCOCCO[C@@H]3O[C@H](CO)[C@H](O)[C@H](O)[C@H]3Nc3cncc(C(F)(F)F)n3)nn2)CSSC[C@@H](C(=O)N[C@H](C(N)=O)[C@@H](C)O)NC(=O)[C@H](Cc2c[nH]c3ccccc23)NC(=O)[C@H](C(C)C)NC(=O)[C@H](CC(C)C)NC(=O)[C@H](CCC(=O)O)NC(=O)CNC1=O [compound 93] | < 0.1 µM | < 0.1 µM | < 0.1 µM | < 0.1 µM | 
10 |  |  |  | CC(C)C[C@@H]1NC(=O)[C@H](Cc2cnc[nH]2)NC(=O)[C@H](Cc2c[nH]c3ccccc23)NC(=O)[C@H](C)NC(=O)[C@@H]2CSSC[C@H](NC(=O)[C@H](Cc3c[nH]c4ccccc34)NC(=O)[C@H](C(C)C)NC(=O)[C@H](CC(C)C)NC(=O)[C@H](CCC(=O)O)NC(=O)CNC1=O)C(=O)N[C@@H]([C@@H](C)O)C(=O)N1CCC[C@@H]1C(=O)N1C[C@H](NC(=O)CNC(COCCC(=O)NCCOCCOCCOCCOC[C@H]3OC[C@H](Nc4cncc(C(F)(F)F)n4)[C@@H](O)[C@H]3O)COCCC(=O)NCCOCCOCCOCCOC[C@H]3OC[C@H](Nc4cncc(C(F)(F)F)n4)[C@@H](O)[C@H]3O)C[C@H]1C(=O)N[C@@H](CC(=O)O)C(=O)N2 [compound 97] | < 0.1 µM | < 0.1 µM | < 0.1 µM |  | EC50 ([5]; Homo sapiens, the 25th table, class symbols, read-out: Uptake EC50): < 0.1 µM
